Structures can show the parent of a compound that is named as a salt.
Experiments:
[1] = Sweetness of monatin stereoisomers relative to sucrose by weight (from SEV); format: in vivo; conditions: general statement of the description; listed as R,R stereoisomer of monatin, mono potassium salt
Description: (§1) As used herein, “sucrose equivalency value”, or SEV, is a measure of sweetness. The SEV is the concentration (% w/v) of a sucrose solution that gives a degree of sweetness that is perceived to be the same degree of sweetness as that of a test sample. For purposes of this disclosure, the SEV of an aqueous or dairy solution containing monatin is determined through comparison of the monatin-containing solution to a series of sucrose containing solutions prepared in the same medium (see Example 1).
Monatin-containing compositions are described herein as being “X” times as sweet as sucrose. The various stereoisomers of monatin are also described as being “X” times sweeter than sucrose. These values are determined from the SEV of the compositions.

[2] = Sweetness match of monatin-sweetened strawberry yogurt to 8% sucrose target; format: in vivo
Description: A strawberry yogurt sweetened with about 8% sucrose was prepared by conventional methods common to one skilled in the art of yogurt manufacturing to serve as a sweetness target. […] The monatin-sweetened yogurt that most closely matched the sweetness of the target sucrose sample was chosen.

panelists [3] = assay: Concentration-response of monatin sweetness (SEV) in milk and diluted yogurt, Example 2; format: in vivo, human
Description: Monatin, aspartame and sucralose samples were prepared in milk (2% fat) and diluted with plain, fat-free yogurt. Sucrose reference solutions were prepared in solutions of the same medium.
(§2) Panelists (8-10) were presented with a range (2-12%; w/v) of sucrose reference solutions and a single test sample. They were instructed to taste the test sample and then to identify the reference sample that matched the perceived sweetness of the test sample. If the sweetness of the test sample was judged to fall between that of two references, panelists were asked to estimate sweetness to one decimal point. Panelists evaluated each sample in duplicate. All results for each test sample were averaged.
Sweetener test samples and sucrose references were prepared as solutions in the following mediums: • (1) Milk (2% fat) at pH 6.8. • (2) A diluted plain (unsweetened and unflavored) yogurt was sheared with water (80 parts yogurt and 20 parts water) to yield an acidic solution based on fermented milk with a final pH of 4.6.

panelists [4] = assay: Sweetness matching of monatin/salt combinations in water pH 7 and citric/citrate buffer pH 3, Examples 3-5; format: in vivo, human; conditions: Monatin only (40 ppm), no salt
Description: Test and reference solutions were prepared in the same medium. The SEVs of monatin/salt combinations at the appropriate concentrations were measured and compared to the SEV of monatin measured in the absence of any salts. […] Monatin-containing test samples and sucrose references were prepared in the same medium. Based on the previous observations that the sweetness of monatin relative to sucrose is sweeter at acidic pH, this study was carried out under two pH conditions; specifically, in water at pH 7-7.5 and in a citric/citrate buffer at pH 3.0. 2R,4R-Monatin mono potassium salt was used as an illustrative form of monatin for the experiments below. All monatin solutions were prepared ‘as is’, i.e., a 40 ppm monatin solution is 40 ppm of monatin mono potassium salt. A sweetness matching procedure was adopted. […] Each test sample was either monatin control or monatin plus designated salt at the stated concentration. Panelists were instructed to taste the test sample and then to identify the reference sample that matched the perceived sweetness of the test sample. If the sweetness of the test sample was judged to fall between that of two references, panelists were instructed to estimate sweetness to one decimal point. Panelists evaluated each sample in duplicate. Results for each test sample were averaged. […] The five samples were tested at pH 7 (water medium) and at pH 3 (citric/citrate buffer). […] The weight percent of calcium in the salt is different for each of the calcium salts. As such, the weight percent of the calcium salt in each sample is calculated in order to determine how much salt is needed to deliver 1200 ppm of calcium cations. […] The weight percent of the other calcium salts is similarly calculated based on the molar weight percent of calcium in the calcium salt. […] The samples were created at pH 3 and pH 7. The impact of other metal ions, specifically potassium and magnesium, (i.e. […] These ions were tested in the form and concentrations found in cow's milk.

panelists [5] = assay: Sensory panel sweetness matching against sucrose references (SEV) in milk and water media, Example 1; format: in vivo, human; conditions: for sweetness enhancement of water/calcium solution over monatin in water alone: c. 120 mg calcium/100 ml as Gluconal CAL
Description: as §1
Monatin compositions were prepared by adding monatin to each of the solutions below at 20 ppm and 40 ppm. Sucrose reference compositions were also prepared. • Milk (0% fat) • Milk (0% fat) adjusted to pH 4.6 with lactic acid • Milk (2% fat) • Milk (3.6% fat) • Water • Water, adjusted to pH 4.6 with lactic acid • Water containing c. 120 mg calcium/100 ml (Ca^2+ added as Gluconal CAL® soluble salt) • Water containing 4.5% lactose • Water containing c. 120 mg calcium/100 mL plus 4.5% lactose • Water containing 3% milk protein isolate (Davisco BiPro)
as §2, with “solutions prepared in each of the mediums listed above as well as two monatin test solutions at 20 ppm” for “solutions”, “40 ppm prepared in the same manner. The panelists” for “a single test sample. They”

[6] = Diluted Yogurt (pH 4.6), monatin 10 ppm
[7] = Diluted Yogurt (pH 4.6), monatin 20 ppm
[8] = Diluted Yogurt (pH 4.6), monatin 30 ppm
[9] = Diluted Yogurt (pH 4.6), monatin 40 ppm
[10] = Diluted Yogurt (pH 4.6), monatin 50 ppm
[11] = Milk, 2% fat (pH 6.8), monatin 5 ppm
[12] = Milk, 2% fat (pH 6.8), monatin 10 ppm
[13] = Milk, 2% fat (pH 6.8), monatin 20 ppm
[14] = Milk, 2% fat (pH 6.8), monatin 30 ppm
[15] = Milk, 2% fat (pH 6.8), monatin 40 ppm
[16] = Milk, 2% fat (pH 6.8), monatin 50 ppm

NC(CC(O)(Cc1c[nH]c2ccccc12)C(=O)O)C(=O)O (stereo not drawn) [R,R-Monatin, 2R,4R-Monatin mono potassium salt]
times sweeter than sucrose by weight [1]: 2000-2400 times
monatin concentration that most closely matched the sweetness of yogurt sweetened to 8% sucrose ([2]; strawberry yogurt): about 25 ppm
times as sweet as sucrose ([2]; strawberry yogurt): about 3200 times
SEV ([2]; strawberry yogurt with 25 ppm R,R monatin): about 8%
Relative Sweetness (panelists [3]; [6]): 4,000 ×sucrose
SEV (panelists [3]; [6]): 4.0 % sucrose; w/v
Relative Sweetness (panelists [3]; [7]): 3,300 ×sucrose
SEV (panelists [3]; [7]): 6.6 % sucrose; w/v
Relative Sweetness (panelists [3]; [8]): 3,100 ×sucrose
SEV (panelists [3]; [8]): 9.3 % sucrose; w/v
Relative Sweetness (panelists [3]; [9]): 2,625 ×sucrose
SEV (panelists [3]; [9]): 10.5 % sucrose; w/v
Relative Sweetness (panelists [3]; [10]): 2,280 ×sucrose
SEV (panelists [3]; [10]): 11.4 % sucrose; w/v
Relative Sweetness (panelists [3]; [11]): 4,000 ×sucrose
SEV (panelists [3]; [11]): 2.0 % sucrose; w/v
Relative Sweetness (panelists [3]; [12]): 3,000 ×sucrose
SEV (panelists [3]; [12]): 3.0 % sucrose; w/v
Relative Sweetness (panelists [3]; [13]): 2,750 ×sucrose
SEV (panelists [3]; [13]): 5.5 % sucrose; w/v
Relative Sweetness (panelists [3]; [14]): 2,270 ×sucrose
SEV (panelists [3]; [14]): 6.8 % sucrose; w/v
Relative Sweetness (panelists [3]; [15]): 2,100 ×sucrose
SEV (panelists [3]; [15]): 8.4 % sucrose; w/v
Relative Sweetness (panelists [3]; [16]): 1,780 ×sucrose
SEV (panelists [3]; [16]): 8.9 % sucrose; w/v
Sucrose Equivalency Value (panelists [4]; pH 3.0 citric/citrate buffer): 8.6%
Sucrose Equivalency Value (panelists [4]; pH 7.0 water): 8.4%
decrease in sweetness of water solution having 4.5% lactose compared to water solution only containing monatin (panelists [5]; 20 ppm monatin): 22%
sweetness enhancement of 0% fat milk at pH 4.6 over 0% fat milk at pH 6.4 (panelists [5]; 20 ppm monatin): 13%
SEV (panelists [5]; 20 ppm monatin, Milk (0% fat), pH 6.4): 5.3 %; w/v
SEV (panelists [5]; 20 ppm monatin, Milk (0% fat; yogurt + milk), pH 4.6): 6.0 %; w/v
SEV (panelists [5]; 20 ppm monatin, Milk (2% fat), pH 6.4): 5.6 %; w/v
SEV (panelists [5]; 20 ppm monatin, Milk (3.6% fat), pH 6.4): 5.2 %; w/v
SEV (panelists [5]; 20 ppm monatin, Water + 120 mg/100 mL calcium (Gluconal CAL), pH 7.6): 6.4 %; w/v
SEV (panelists [5]; 20 ppm monatin, Water + 3% whey protein isolate, pH 7.8): 5.2 %; w/v
SEV (panelists [5]; 20 ppm monatin, Water + 4.5% lactose, pH 7.8): 4.0 %; w/v
SEV (panelists [5]; 20 ppm monatin, Water + calcium + lactose, pH 7.8): 5.6 %; w/v
SEV (panelists [5]; 20 ppm monatin, Water + lactic acid, pH 4.6): 6.0 %; w/v
SEV (panelists [5]; 20 ppm monatin, Water, pH 7.8): 5.1 %; w/v
sweetness enhancement of water/calcium solution over monatin in water alone (panelists [5]; 20 ppm monatin): 25%
decrease in sweetness of water solution having 4.5% lactose compared to water solution only containing monatin (panelists [5]; 40 ppm monatin): 18%
sweetness enhancement of 0% fat milk at pH 4.6 over 0% fat milk at pH 6.4 (panelists [5]; 40 ppm monatin): 16%
SEV (panelists [5]; 40 ppm monatin, Milk (0% fat), pH 6.4): 8.5 %; w/v
SEV (panelists [5]; 40 ppm monatin, Milk (0% fat; yogurt + milk), pH 4.6): 9.9 %; w/v
SEV (panelists [5]; 40 ppm monatin, Milk (2% fat), pH 6.4): 8.7 %; w/v
SEV (panelists [5]; 40 ppm monatin, Milk (3.6% fat), pH 6.4): 8.3 %; w/v
SEV (panelists [5]; 40 ppm monatin, Water + 120 mg/100 mL calcium (Gluconal CAL), pH 7.6): 9.0 %; w/v
SEV (panelists [5]; 40 ppm monatin, Water + 3% whey protein isolate, pH 7.8): 7.6 %; w/v
SEV (panelists [5]; 40 ppm monatin, Water + 4.5% lactose, pH 7.8): 6.3 %; w/v
SEV (panelists [5]; 40 ppm monatin, Water + calcium + lactose, pH 7.8): 8.0 %; w/v
SEV (panelists [5]; 40 ppm monatin, Water + lactic acid, pH 4.6): 7.9 %; w/v
SEV (panelists [5]; 40 ppm monatin, Water, pH 7.8): 7.7 %; w/v
sweetness enhancement of water/calcium solution over monatin in water alone (panelists [5]; 40 ppm monatin): 17%
impact of milk fat on relative sweetness values of monatin solutions prepared from milk (panelists [5]; milk 0%, 2%, 3.6% fat): essentially unaffected
